Measurements taken from the supplement of paper PMC10132981, “Formate overflow drives toxic folate trapping in MTHFD1 inhibited cancer cells” (Nature Metabolism, 2023).
± gives the standard deviation of the averaged measurements.

Key:
Test in all cases: EC50 for viability (resazurin, 96 h)
HCT116 = details: RPMI+GlutaMAX (10% FBS, 1% P/S)
PA-TU-8988T = details: DMEM+GlutaMAX (5% dFBS, 1% P/S)
SW620 MTHFD2 -/- = details: RPMI+GlutaMAX (5% dFBS, 1% P/S)
SW620 MTHFD2-/- = details: RPMI+GlutaMAX (5% dFBS, 1% P/S)
SW620 WT = test system: SW620 WT
SW620 = test system: SW620
[1] = metabolite supplement: Hypoxanthine
[2] = metabolite supplement: Thymidine

In the case of Nc1nc(N)c(NC(=O)Nc2cnc(C(=O)N[C@@H](CCc3nnn[nH]3)C(=O)O)c(F)c2)c(=O)[nH]1, the EC50 for viability (HCT116; [1]) is reported as 6.57 nM, the EC50 for viability (HCT116; metabolite supplement: Vehicle) is reported as 13.1 nM and the EC50 for viability (PA-TU-8988T; [2]) is reported as 1.6 nM. The EC50 for viability (PA-TU-8988T; metabolite supplement: Vehicle) was 1.31 nM, the EC50 for viability (SW620 MTHFD2 -/-; [1]) was 1.53 nM and the EC50 for viability (SW620 MTHFD2 -/-; metabolite supplement: Sodium Formate) was 12.5 nM. The EC50 for viability (SW620 MTHFD2 -/-; [2]) was 0.604 ± 0.97 nM, the EC50 for viability (SW620 MTHFD2 -/-; metabolite supplement: Thymidine + Sodium Formate) was 129 nM and the EC50 for viability (SW620 MTHFD2 -/-; metabolite supplement: Vehicle) was 0.506 ± 0.64 nM. The EC50 for viability (SW620 MTHFD2-/-; metabolite supplement: Hypoxanthine + Formate) was 15.8 nM, the EC50 for viability (SW620 MTHFD2-/-; metabolite supplement: Vehicle) was 0.501 nM and the EC50 for viability (SW620 WT; RPMI+GlutaMAX (5% dFBS, 1% P/S), metabolite supplement: Adenine) was 15.3 nM. The EC50 for viability (SW620 WT; RPMI+GlutaMAX (5% dFBS, 1% P/S), metabolite supplement: Adenosine) was 16.6 nM, the EC50 for viability (SW620 WT; RPMI+GlutaMAX (5% dFBS, 1% P/S), metabolite supplement: Guanosine) was 19.9 nM and the EC50 for viability (SW620 WT; RPMI+GlutaMAX (5% dFBS, 1% P/S), metabolite supplement: Hypoxanthine) was 14.1 ± 4.2 nM. It also gave an EC50 for viability (SW620 WT; RPMI+GlutaMAX (5% dFBS, 1% P/S), metabolite supplement: Hypoxanthine + AICAr 10 µM) of 12.3 nM, an EC50 for viability (SW620 WT; RPMI+GlutaMAX (5% dFBS, 1% P/S), metabolite supplement: Hypoxanthine + AICAr 30 µM) of 16.4 nM and an EC50 for viability (SW620 WT; RPMI+GlutaMAX (5% dFBS, 1% P/S), metabolite supplement: Hypoxanthine + AICAr 50 µM) of 20 nM. For the same compound, the EC50 for viability (SW620 WT; RPMI+GlutaMAX (5% dFBS, 1% P/S), metabolite supplement: Hypoxanthine + AICAr 100 µM) was greater than 10000 nM, the EC50 for viability (SW620 WT; RPMI+GlutaMAX (5% dFBS, 1% P/S, 10 uM Hypoxanthine), metabolite supplement: Thymidine 0.1 uM) was 16.5 nM and the EC50 for viability (SW620 WT; RPMI+GlutaMAX (5% dFBS, 1% P/S, 10 uM Hypoxanthine), metabolite supplement: Thymidine 0.5 uM) was 24.3 nM. For the same compound, the EC50 for viability (SW620 WT; RPMI+GlutaMAX (5% dFBS, 1% P/S, 10 uM Hypoxanthine), metabolite supplement: Thymidine 1uM) was 13.7 nM, the EC50 for viability (SW620 WT; RPMI+GlutaMAX (5% dFBS, 1% P/S, 10 uM Hypoxanthine), metabolite supplement: Thymidine 5uM) was greater than 10000 nM and the EC50 for viability (SW620 WT; RPMI+GlutaMAX (5% dFBS, 1% P/S, 10 uM Hypoxanthine), metabolite supplement: Thymidine 10 uM) was greater than 10000 nM. It also gave an EC50 for viability (SW620 WT; RPMI+GlutaMAX (5% dFBS, 1% P/S, 10 uM Hypoxanthine), metabolite supplement: Thymidine 25 uM) greater than 10000 nM, an EC50 for viability (SW620 WT; RPMI+GlutaMAX (5% dFBS, 1% P/S, 10 uM Hypoxanthine), metabolite supplement: Thymidine 50 uM) greater than 10000 nM and an EC50 for viability (SW620 WT; RPMI+GlutaMAX (5% dFBS, 1% P/S, 10 uM Hypoxanthine), metabolite supplement: Vehicle) of 13.6 nM. The EC50 for viability (SW620 WT; RPMI+GlutaMAX (5% dFBS, 1% P/S, 50 uM Hypoxanthine), metabolite supplement: Thymidine 0.1 uM) was 17.5 nM, the EC50 for viability (SW620 WT; RPMI+GlutaMAX (5% dFBS, 1% P/S, 50 uM Hypoxanthine), metabolite supplement: Thymidine 0.5 uM) was 14.5 nM and the EC50 for viability (SW620 WT; RPMI+GlutaMAX (5% dFBS, 1% P/S, 50 uM Hypoxanthine), metabolite supplement: Thymidine 1uM) was 12.5 nM. The EC50 for viability (SW620 WT; RPMI+GlutaMAX (5% dFBS, 1% P/S, 50 uM Hypoxanthine), metabolite supplement: Thymidine 5uM) was greater than 10000 nM, the EC50 for viability (SW620 WT; RPMI+GlutaMAX (5% dFBS, 1% P/S, 50 uM Hypoxanthine), metabolite supplement: Thymidine 10 uM) was greater than 10000 nM and the EC50 for viability (SW620 WT; RPMI+GlutaMAX (5% dFBS, 1% P/S, 50 uM Hypoxanthine), metabolite supplement: Thymidine 25 uM) was greater than 10000 nM. It also gave an EC50 for viability (SW620 WT; RPMI+GlutaMAX (5% dFBS, 1% P/S, 50 uM Hypoxanthine), metabolite supplement: Thymidine 50 uM) greater than 10000 nM, an EC50 for viability (SW620 WT; RPMI+GlutaMAX (5% dFBS, 1% P/S, 50 uM Hypoxanthine), metabolite supplement: Vehicle) of 13 nM and an EC50 for viability (SW620; HPLM (5% dFBS, 1% P/S), metabolite supplement: Vehicle) of 12.7 nM. The EC50 for viability (SW620; RPMI+GlutaMAX (5% FBS, 1% P/S), metabolite supplement: Vehicle) was 13.4 nM, the EC50 for viability (SW620; RPMI+GlutaMAX (5% dFBS, 1% P/S), metabolite supplement: 50 µM Hypoxanthine) was 14 ± 4.3 nM and the EC50 for viability (SW620; RPMI+GlutaMAX (5% dFBS, 1% P/S), metabolite supplement: Vehicle) was 14.7 nM. The EC50 for viability (SW620; RPMI+GlutaMAX (10% FBS, 1% P/S), metabolite supplement: Folic acid) was 597 nM, the EC50 for viability (SW620; RPMI+GlutaMAX (10% FBS, 1% P/S), metabolite supplement: Folinic acid) was 687 nM and the EC50 for viability (SW620; RPMI+GlutaMAX (10% FBS, 1% P/S), metabolite supplement: Hypoxanthine) was 10.4 nM. For the same compound, the EC50 for viability (SW620; RPMI+GlutaMAX (10% FBS, 1% P/S), metabolite supplement: Sodium Formate) was 12.7 nM, the EC50 for viability (SW620; RPMI+GlutaMAX (10% FBS, 1% P/S), metabolite supplement: Thymidine) was greater than 10000 nM and the EC50 for viability (SW620; RPMI+GlutaMAX (10% FBS, 1% P/S), metabolite supplement: Thymidine + Folic acid) was 1920 nM. The EC50 for viability (SW620; RPMI+GlutaMAX (10% FBS, 1% P/S), metabolite supplement: Vehicle) was 9.47 ± 2.1 nM.
